This passage reports Ki and Kd results from US8242102B2, “Quinoline compounds suitable for treating disorders that respond to modulation of the serotonin 5-HT6 receptor” (Abbott GmbH & Co. KG, priority 2007, dated 2012).

pKd, pKi: −log10 of the molar value. Where a name gives a salt, the structure may show the parent alone.

The pKi is the negative decadic logarithm of the Ki, by convention in mol/L. Lower therefore signals a large Ki. In general, pKd refers to −log10 of the Kd, conventionally taken in molar units.

T1 sequence (P50406 whole entry): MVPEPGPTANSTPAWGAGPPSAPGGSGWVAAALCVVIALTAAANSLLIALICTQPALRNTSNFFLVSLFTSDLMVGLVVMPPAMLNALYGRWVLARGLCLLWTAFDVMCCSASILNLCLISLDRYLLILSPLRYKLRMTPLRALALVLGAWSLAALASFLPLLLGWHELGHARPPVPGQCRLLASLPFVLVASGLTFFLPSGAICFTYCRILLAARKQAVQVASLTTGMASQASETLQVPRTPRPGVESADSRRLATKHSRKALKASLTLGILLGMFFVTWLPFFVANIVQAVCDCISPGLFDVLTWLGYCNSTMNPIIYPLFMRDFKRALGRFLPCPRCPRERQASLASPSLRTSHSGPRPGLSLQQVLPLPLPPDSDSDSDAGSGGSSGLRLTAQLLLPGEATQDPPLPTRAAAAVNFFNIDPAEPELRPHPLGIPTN

One experiment has as its target T1, h-5-HT6 receptor (Homo sapiens, UniProt P50406).
T1 construct: expressed in transfected cells; host or cells: HEK293
Briefly: 5-HT6 receptor binding assay, displacement of [3H]-LSD. The note with it: membranes of HEK293 cells expressing h-5-HT6, 1 nM [3H]-LSD. As for the experimental part:
Displacement of Radioligands Binding to the Following Cloned Human Receptors
(§1) 1. Preparation of Membranes by Ultrasonic Treatment and Differential Centrifugation
Cells from stable clonal cell lines expressing the corresponding receptor (5-HT6, 1-adrenergic, dopamine D2 or histamine H1 receptors) were washed with PBS (w/o Ca^++, Mg^++) and harvested in PBS with 0.02% EDTA. The cells were collected by centrifugation at 500 g for 10 min. at 4° C., washed with PBS and centrifuged (500 g, 10 min. 4° C.). The pellets were stored at −80° C. until use. For membrane preparation, the thawed cell pellet was resuspended in ice-cold sucrose buffer (0.25 M sucrose, 10 mM Hepes (pH 7.4), 1 mM Phenylmethylsulfonyl fluoride (PMSF) in DMSO, […] Pepstatin-A, 3 mM EDTA, 0.025% Bacitracin) and homogenized with a Branson Sonifier W-250 (Settings: Timer 4; Output Control 3; Duty Cycle constant; 2 to 3 cycles). Cell disruption was checked with the aid of a microscope. Remaining unbroken cells were pelleted at 1,000 g for 10 min. at 4° C. The sucrose buffer supernatant was then centrifuged at 60,000 g for 1 h at 4° C. (Beckman Ultrazentrifuge XL 80). The pellet was resuspended in 30 ml ice-cold Tris buffer (20 mM TRIS (pH 7.4), […] Pepstatin A, 0.1 mM PMSF, 3 mM EDTA) by pipetting through a 10 ml serological pipet and centrifuged for 1 h at 4° C. at 60,000 g. A final resuspension was performed in a small volume of ice-cold Tris buffer (see above) by pressing through a serological pipet followed by ultrasonic treatment with a Branson Sonifier W-250 (Settings: Timer 1; Output Control 3; Duty Cycle constant; 1 cycle). Protein concentration was determined (BCA-Kit; Pierce) and aliquots stored at −80° C. or in liquid nitrogen for long-term storage.
(§2) 2. Receptor Binding Experiments
All receptor binding experiments were carried out in the corresponding assay buffer in a total volume of 200 μl in the presence of various concentrations of test compound (10^−5 M to 10^−9 M, tenfold serial dilution, duplicate determinations). The assays were terminated by filtration on polyethylenimine (PEI 0.1% or 0.3%) presoaked Packard Unifilter Plates (GF/C or GF/B) with a Tomtec MachIII U 96 well-plate harvester. After the plates had been dried for 2 h at 55° C. in a drying chamber scintillation cocktail (BetaPlate Scint; PerkinElmer) was added. Radioactivity was measured in a Microbeta Trilux two hours after the addition of the scintillation mixture. Data derived from liquid scintillation counting were analysed by iterative non-linear regression analysis with the use of the Statistical Analysis System (SAS): a program similar to “LIGAND” as described by Munson and Rodbard (Analytical Biochemistry 107, 220-239 (1980).
a) 5-HT6 Receptor Binding Assay
HEK293 cells stably expressing the h-5-HT6 receptor (NCBI Reference Sequence XM 001435) were cultured in RPMI1640 medium supplemented with 25 mM HEPES, 10% fetal calf serum and 1-2 mM glutamine. The membrane preparation was performed as described in section 1. […] Non-specific binding was defined with 1 μM methiothepin. The binding reaction was carried out for 3.5 h at room temperature. During the incubation, the plates were shaken on a plate shaker at 100 rpm and terminated by filtration on Packard Unifilter GF/C (0.1% PEI) plates, followed by 2 wash cycles with ice-cold 50 mM Tris-HCl, 5 mM CaCl2.
Data derived from liquid scintillation counting were analyzed by iterative non-linear regression analysis with the use of the Statistical Analysis System (SAS): a program similar to “LIGAND” as described by Munson and Rodbard (Anal. Biochem. 1980, 107, 220-239). Fitting was performed according to formulae described by Feldman (Anal. Biochem. 1972, 48, 317-338). IC50, nH and Ki values were expressed as geometrical mean.
(Loss of bound radioactivity is the signal in a displacement assay; it reports binding, not function.)
`O=S(=O)(c1ccccc1)c1cnc2c(C3CNC3)cccc2c1` [Example 1, 8-(Azetidin-3-yl)-3-(phenylsulfonyl)quinoline hydrochloride] had a pKi above 7.00.
In turn, `O=S(=O)(c1ccccc1)c1cnc2c(C3CCNCC3)cccc2c1` [Example 2, 3-(Phenylsulfonyl)-8-(piperidin-4-yl)quinoline hydrochloride] showed a pKi above 7.00.
The same measure, in the same setting: with `O=S(=O)(c1ccccc1)c1cnc2c(C3CCN(Cc4ccccc4)C3)cccc2c1` (centres unmarked) [Example 3, 8-(1-Benzylpyrrolidin-3-yl)-3-(phenylsulfonyl)quinoline] the figure was below 6.00; with `O=S(=O)(c1cccc(C(F)(F)F)c1)c1cnc2c(C3CCNCC3)cccc2c1` [Example 4, 8-(Piperidin-4-yl)-3-(3-(trifluoromethyl)phenylsulfonyl)quinoline], above 7.00.
In turn, `O=S(=O)(c1ccc(F)cc1)c1cnc2c(C3CCNCC3)cccc2c1` [Example 5, 3-(4-Fluorophenylsulfonyl)-8-(piperidin-4-yl)quinoline] had a pKi above 7.00.
Still for that read-out and setting: with `O=S(=O)(c1cccc(Br)c1)c1cnc2c(C3CCNCC3)cccc2c1` [Example 6, 3-(3-Bromophenylsulfonyl)-8-(piperidin-4-yl)quinoline] the figure was above 7.00; with `O=S(=O)(c1cccc(N2CCCC2)c1)c1cnc2c(C3CCNCC3)cccc2c1` [Example 7, 8-(Piperidin-4-yl)-3-(3-(pyrrolidin-1-yl)phenylsulfonyl)quinoline], above 7.00.

A further experiment deals with T2, dopamine D2 receptor (Homo sapiens, UniProt P14416).
T2 construct: expressed in transfected cells; host or cells: HEK293
T2 sequence (P14416 whole entry): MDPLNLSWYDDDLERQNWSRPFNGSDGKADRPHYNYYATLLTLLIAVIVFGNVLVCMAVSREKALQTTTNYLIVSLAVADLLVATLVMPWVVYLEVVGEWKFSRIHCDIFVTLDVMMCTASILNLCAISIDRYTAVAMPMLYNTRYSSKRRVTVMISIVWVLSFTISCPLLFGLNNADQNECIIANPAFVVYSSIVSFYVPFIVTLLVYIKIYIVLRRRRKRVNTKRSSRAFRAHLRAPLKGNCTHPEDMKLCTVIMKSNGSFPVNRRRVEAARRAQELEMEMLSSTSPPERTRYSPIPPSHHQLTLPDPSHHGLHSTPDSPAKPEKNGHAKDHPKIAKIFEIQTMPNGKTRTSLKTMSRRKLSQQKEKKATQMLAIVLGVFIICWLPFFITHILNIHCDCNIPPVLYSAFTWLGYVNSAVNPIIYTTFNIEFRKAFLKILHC
Briefly: Dopamine D2 receptor binding assay, displacement of [125I]-iodospiperone. The note with it: saturation binding, HEK293 dopamine D2 membranes; read-out: KD of radioligand. As for the experimental part:
as §1
The pellets were stored at −80° C. until use. […] (Beckman Ultrazentrifuge XL 80).
as §2
a) Dopamine D2 Receptor Binding Assay
Non-specific binding was defined with 1 μM haloperidol.
Regarding iodospiperone [[^125I]-iodospiperone], the pKd is 9.66.
